Among the data in DBAASP are MIC values, retold here.

Holding throughout (assay): ≥ marks a high value that may be exact or a test limit, other limits are often not marked, values filed in µg/mL are converted to µM
The subject of assay [1] is Bacillus licheniformis X39.
The subject of assay [2] is Escherichia coli ATCC 25922.
The subject of assay [3] is Rhodococcus rhodochrous X15.
Assay [4] concerns Botrytis cinerea.
The subject of assay [5] is Candida albicans ATCC 10231.
Assay [6] has as its system Escherichia coli ATCC 11775.
Assay [7] has as its system Staphylococcus aureus ATCC 12600.
Assay [8] concerns Enterobacter cloacae 218R.
For assay [9], the system named is Enterococcus faecalis ATCC 29212.
The subject of assay [10] is Enterococcus faecalis W61950.
Assay [11] has as its system Enterococcus faecalis f43559.
The subject of assay [12] is Enterococcus faecium mic80.
Assay [13] relates to Enterococcus faecium t62764.
For assay [14], the system named is Escherichia coli ESBL 63103.
For assay [15], the system named is Escherichia coli ESBL 64771.
Assay [16] relates to Klebsiella pneumoniae ESBL 61962.
The test system of assay [17] is Klebsiella pneumoniae ESBL 63575.
Assay [18] concerns Pseudomonas aeruginosa 198.
Assay [19] relates to Pseudomonas aeruginosa 213.
Assay [20] concerns Pseudomonas aeruginosa 9.
The test system of assay [21] is Pseudomonas aeruginosa H1027.
Assay [22] relates to Pseudomonas aeruginosa H1030.
The test system of assay [23] is Pseudomonas aeruginosa LES400.
Assay [24] concerns Pseudomonas aeruginosa PAO1 H103.
Assay [25] concerns Staphylococcus aureus ATCC 25923.
In assay [26] the test system is Staphylococcus aureus C623.
For assay [27], the system named is Stenotrophomonas maltophilia ATCC 13637.
Assay [28] concerns Bacillus subtilis.
Assay [29] deals with Escherichia coli.
The subject of assay [30] is Klebsiella pneumoniae.
The test system of assay [31] is Micrococcus luteus.
In assay [32] the test system is Proteus mirabilis.
For assay [33], the system named is Pseudomonas aeruginosa.
In assay [34] the test system is Salmonella typhimurium.
The test system of assay [35] is Shigella dysenteriae.
Assay [36] deals with Staphylococcus aureus.
Assay [37] relates to Staphylococcus epidermidis.
In assay [38] the test system is Klebsiella pneumoniae ATCC 13883.
Assay [39] relates to Staphylococcus aureus USA 300 LAC.

In brackets after ≈: the same amount, converted by molar mass.

On to `CC[C@H](C)[C@@H]1NC(=O)[C@H](CCCCN)NC(=O)[C@@H](NC(=O)[C@H](Cc2ccccc2)NC(=O)[C@H](CC(C)C)NC(=O)[C@@H](NC(=O)[C@@H]2CCCN2C(=O)[C@@H](NC(=O)[C@@H](NC(=O)[C@H](CC(N)=O)NC(=O)[C@H](C)NC(=O)[C@H](C)NC(=O)[C@@H](NC(=O)[C@H](CCCCN)NC(=O)[C@H](CC(C)C)NC(=O)[C@H](C)NC(=O)[C@@H](NC(=O)[C@H](CO)NC(=O)[C@H](CC(C)C)NC(=O)[C@@H](N)Cc2ccccc2)[C@@H](C)O)C(C)C)C(C)C)C(C)C)[C@@H](C)O)CSSC[C@@H](C(=O)O)NC(=O)[C@H](CCCCN)NC(=O)[C@H](CCCCN)NC(=O)[C@H]([C@@H](C)O)NC1=O` [FLSTALKVAANVVPTLFCKITKKC], for which the MIC in assay [1] is no less than 75 µM; in assay [2] it was 150 µM (≈ 389 µg/mL); in [3] it was 9 µM (≈ 23.3 µg/mL).

Take `CC[C@H](C)[C@H](N)C(=O)N[C@@H](CC(C)C)C(=O)NCC(=O)N[C@H](C(=O)N[C@H](C(=O)N[C@H](C(=O)N[C@@H](CO)C(=O)N[C@@H](CC(C)C)C(=O)N[C@@H](CC(C)C)C(=O)N[C@@H](CCCCN)C(=O)N[C@@H](CO)C(=O)N[C@@H](CC(C)C)C(N)=O)[C@@H](C)O)[C@@H](C)CC)[C@@H](C)CC` [ILGIITSLLKSL]: the minimal inhibitory concentration (MIC) in [4] was 0.394 µM (≈ 0.5 µg/mL); in assay [5] it was 15.7 µM (≈ 20 µg/mL); in [6] it was no less than 78.7 µM; in [7], 19.7 µM (≈ 25 µg/mL).

Consider `CSCC[C@H](NC(=O)[C@@H](NC(=O)[C@H](C)NC(=O)[C@@H]1CCCN1C(=O)[C@H](CO)NC(=O)[C@@H](N)CC(C)C)C(C)C)C(=O)N[C@@H](C)C(=O)N[C@@H](CO)C(=O)N[C@@H](CC(C)C)C(=O)N[C@@H](C)C(N)=O` [LSPAVMASLA], for which the MIC was no less than 200 µM in assay [4], greater than 200 µM in assay [5], no less than 200 µM in assay [6] and no less than 200 µM in [7].

Regarding `CC[C@H](C)[C@H](NC(=O)[C@H](Cc1c[nH]c2ccccc12)NC(=O)[C@H](Cc1c[nH]c2ccccc12)NC(=O)[C@H](CCCCN)NC(=O)[C@H](CC(C)C)NC(=O)[C@H](CCCN=C(N)N)NC(=O)[C@H](CCCCN)NC(=O)[C@@H](N)CCCN=C(N)N)C(=O)N[C@@H](Cc1ccc(O)cc1)C(=O)O` [RKRLKWWIY], the MIC was 7.12 µM (≈ 9.6 µg/mL) in assay [8]; 27.4 µM (≈ 37 µg/mL) in assay [9]; no less than 110 µM in assay [10]; no less than 110 µM in [11]; 7.12 µM (≈ 9.6 µg/mL) in [12]; 1.78 µM (≈ 2.4 µg/mL) in assay [13]. Moreover, the MIC is 3.48 µM (≈ 4.7 µg/mL) in [14]; 3.48 µM (≈ 4.7 µg/mL) in assay [15]; no less than 110 µM in assay [16]; 27.4 µM (≈ 37 µg/mL) in assay [17]; 27.4 µM (≈ 37 µg/mL) in assay [18]; 27.4 µM (≈ 37 µg/mL) in assay [19]. Besides, the MIC is 27.4 µM (≈ 37 µg/mL) in assay [20]; 3.48 µM (≈ 4.7 µg/mL) in assay [21]; 27.4 µM (≈ 37 µg/mL) in [22]; 27.4 µM (≈ 37 µg/mL) in [23]; 13.3 µM (≈ 18 µg/mL) in assay [24]; 3.48 µM (≈ 4.7 µg/mL) in assay [25]. Besides, the MIC amounted to 3.48 µM (≈ 4.7 µg/mL) in [26] and 1.78 µM (≈ 2.4 µg/mL) in assay [27].

Regarding `NCCCC[C@H](NC(=O)[C@H](Cc1c[nH]c2ccccc12)NC(=O)[C@H](Cc1c[nH]c2ccccc12)NC(=O)[C@H](CCCCN)NC(=O)[C@H](CCCCN)NC(=O)[C@@H](N)Cc1c[nH]c2ccccc12)C(=O)N[C@@H](CCCN=C(N)N)C(=O)N[C@@H](CCCN=C(N)N)C(=O)N[C@@H](Cc1c[nH]c2ccccc12)C(=O)O` [WKKWWKRRW], the MIC was 11 µM (≈ 16 µg/mL) in assay [8]; 43.2 µM (≈ 63 µg/mL) in [9]; no less than 87 µM in assay [10]; no less than 87 µM in assay [11]; 5.62 µM (≈ 8.2 µg/mL) in assay [12]; 2.74 µM (≈ 4 µg/mL) in assay [13]. The MIC in assay [14] is 11 µM (≈ 16 µg/mL); in assay [15] it was 1.37 µM (≈ 2 µg/mL); in assay [16], no less than 87 µM; in [17], 21.2 µM (≈ 31 µg/mL); in assay [18], 21.2 µM (≈ 31 µg/mL); in assay [19], no less than 43.2 µM. Also, the MIC in assay [20] is 21.2 µM (≈ 31 µg/mL); in assay [21] it was 2.74 µM (≈ 4 µg/mL); in assay [22] it was 21.2 µM (≈ 31 µg/mL); in [23], 21.2 µM (≈ 31 µg/mL); in assay [24], 11 µM (≈ 16 µg/mL); in assay [25], 0.685 µM (≈ 1 µg/mL). The MIC in assay [26] turned out to be 1.37 µM (≈ 2 µg/mL); in assay [27] it was 0.685 µM (≈ 1 µg/mL).

Take `CC(C)C[C@H](NC(=O)[C@@H](NC(=O)[C@H](CCCCN)NC(=O)[C@H](CO)NC(=O)[C@H](C)NC(=O)[C@@H](NC(=O)[C@H](CCCCN)NC(=O)[C@H](Cc1ccccc1)NC(=O)[C@H](CC(C)C)NC(=O)[C@H](C)NC(=O)CNC(=O)[C@H](CC(C)C)NC(=O)[C@@H](N)Cc1c[nH]c2ccccc12)C(C)C)C(C)C)C(=O)O` [WLGALFKVASKVL]: the MIC in assay [28] was 4.4 µM (≈ 6.3 µg/mL); in [29] it was 8.73 µM (≈ 12.5 µg/mL); in assay [30] it was 17.5 µM (≈ 25 µg/mL); in assay [31], 1.12 µM (≈ 1.6 µg/mL); in [32], no less than 140 µM; in assay [33], 69.8 µM (≈ 100 µg/mL). Besides, the MIC in assay [34] was no less than 69.8 µM; in assay [35], 17.5 µM (≈ 25 µg/mL); in [36] it was 1.12 µM (≈ 1.6 µg/mL); in assay [37], 2.17 µM (≈ 3.1 µg/mL).

As to `CC[C@H](C)[C@H](NC(=O)[C@H](CCCCN)NC(=O)[C@H](CCCN=C(N)N)NC(=O)[C@H](CC(C)C)NC(=O)[C@H](Cc1c[nH]c2ccccc12)NC(=O)[C@@H](N)Cc1c[nH]c2ccccc12)C(=O)N[C@@H](Cc1c[nH]c2ccccc12)C(=O)N[C@@H](Cc1c[nH]c2ccccc12)C(N)=O` [WWLRKIWW], the results for the MIC in assay [2], in assay [38] and in [39] were 25 µM (≈ 31.8 µg/mL), no less than 50 µM and 6.2 µM (≈ 7.89 µg/mL), respectively.

As usually defined, the MIC is the lowest concentration found to suppress growth. A low value points to greater potency.
